# Measured values from patent US8440652B2, “MST1 kinase inhibitors and methods of their use” (Lexicon Pharmaceuticals, Inc., priority 2011, dated 2013).
# Where two headings read alike, the source gives them in different places.
# Target: T1, MST1 (Homo sapiens, UniProt Q13043)
# T1 sequence (Q13043 1-487): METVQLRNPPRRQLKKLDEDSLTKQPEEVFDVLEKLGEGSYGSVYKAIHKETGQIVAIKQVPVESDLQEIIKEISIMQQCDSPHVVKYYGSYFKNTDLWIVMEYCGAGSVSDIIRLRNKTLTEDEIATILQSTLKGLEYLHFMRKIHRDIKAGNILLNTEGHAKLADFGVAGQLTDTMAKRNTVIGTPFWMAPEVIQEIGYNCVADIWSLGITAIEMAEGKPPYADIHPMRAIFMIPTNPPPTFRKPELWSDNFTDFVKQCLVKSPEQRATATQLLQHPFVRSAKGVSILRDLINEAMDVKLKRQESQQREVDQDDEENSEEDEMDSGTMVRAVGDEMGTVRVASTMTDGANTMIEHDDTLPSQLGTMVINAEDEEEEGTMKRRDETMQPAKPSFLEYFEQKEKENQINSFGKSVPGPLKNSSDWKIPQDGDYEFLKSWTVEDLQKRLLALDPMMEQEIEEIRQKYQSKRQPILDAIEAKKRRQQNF
# Experiment: In vitro measurement of MST1 inhibition (Z′-Lyte kinase assay)
# Type: biochemical
# [1] = 1 μM ATP, read-out: IC50 (μM) 1 μM ATP
# [2] = 50 μM ATP, read-out: IC50 (μM) 50 μM ATP
IC50 [1] [µM],IC50 [2] [µM],Structure (SMILES)
< 0.05,< 0.01,"CC(C)(C#N)c1ccc(-c2cnc(N)c(-c3ccc4c(=O)[nH]ccc4c3)n2)cc1 [2-(4-(5-amino-6-(1-oxo-1,2-dihydroisoquinolin-6-yl)pyrazin-2-yl)phenyl)-2-methylpropanenitrile]"
< 0.05,< 0.01,"Nc1ncc(-c2ccc(S(=O)(=O)N3CCCC34CC4)cc2)cc1-c1ccc2c(c1)CCNC2=O [6-(5-(4-(4-azaspiro[2.4]heptan-4-ylsulfonyl)phenyl)-2-aminopyridin-3-yl)-3,4-dihydroisoquinolin-1(2H)-one]"
< 0.01,< 0.01,"CCCN(C)S(=O)(=O)c1ccc(-c2cnc(N)c(-c3ccc4c(c3)CCNC4=O)c2)nc1 [6′-amino-N-methyl-5′-(1-oxo-1,2,3,4-tetrahydroisoquinolin-6-yl)-N-propyl-[2,3′-bipyridine]-5-sulfonamide]"
< 0.01,< 0.01,"Nc1ncc(-c2ccc(F)cc2)nc1-c1cc2c(cn1)C(=O)NCC2 [6-(3-amino-6-(4-fluorophenyl)pyrazin-2-yl)-3,4-dihydro-2,7-naphthyridin-1(2H)-one]"
< 0.05,< 0.05,"Nc1ncc(-c2ccc3c(c2)CC(=O)N3)cc1-c1ccc2c(c1)CCNC2=O [6-(2-amino-5-(2-oxoindolin-5-yl)pyridin-3-yl)-3,4-dihydroisoquinolin-1(2H)-one]"
< 0.15,< 0.15,"CN(C1CC1)S(=O)(=O)c1ccc(-c2cnc(N)c(C3=CCN(C(=O)CC#N)CC3)c2)cc1 [4-(2-amino-1′-(2-cyanoacetyl)-1′,2′,3′,6′-tetrahydro-[3,4′-bipyridin]-5-yl)-N-cyclopropyl-N-methylbenzenesulfonamide]"
< 0.05,< 0.01,"CN(C)C(C)(C)c1ccc(-c2cnc(N)c(-c3ccc4c(c3)CCNC4=O)c2)cc1 [6-(2-amino-5-(4-(2-(dimethylamino)propan-2-yl)phenyl)pyridin-3-yl)-3,4-dihydroisoquinolin-1(2H)-one]"
< 0.01,< 0.01,"CN(C1CC1)S(=O)(=O)c1ccc(-c2cnc(N)c(-c3ccc4c(c3)CCNC4=O)n2)nc1 [6-(5-amino-6-(1-oxo-1,2,3,4-tetrahydroisoquinolin-6-yl)pyrazin-2-yl)-N-cyclopropyl-N-methylpyridine-3-sulfonamide]"
< 0.01,< 0.01,"Nc1ncc(-c2ccc(S(=O)(=O)NC3CC3)cc2)nc1-c1ccc2c(c1)OCCNC2=O [4-(5-amino-6-(5-oxo-2,3,4,5-tetrahydrobenzo[f][1,4]oxazepin-8-yl)pyrazin-2-yl)-N-cyclopropylbenzenesulfonamide]"
< 0.05,< 0.05,"CCS(=O)(=O)c1ccc(-c2cnc(N)c(-c3ccc4c(c3)CCNC4=O)c2)cc1 [6-(2-amino-5-(4-(ethylsulfonyl)phenyl)pyridin-3-yl)-3,4-dihydroisoquinolin-1(2H)-one]"
< 0.05,< 0.01,"CC(C)(O)c1ccc(-c2cnc(N)c(-c3ccc4c(c3)CCNC4=O)n2)cc1 [6-(3-amino-6-(4-(2-hydroxypropan-2-yl)phenyl)pyrazin-2-yl)-3,4-dihydroisoquinolin-1(2H)-one]"
< 0.01,< 0.01,"CC1(C)CNC(=O)c2ccc(-c3nc(-c4ccc(S(=O)(=O)NC5CC5)cc4)cnc3N)cc21 [4-(5-amino-6-(4,4-dimethyl-1-oxo-1,2,3,4-tetrahydroisoquinolin-6-yl)pyrazin-2-yl)-N-cyclopropylbenzenesulfonamide]"
< 0.15,< 0.05,"CN(C1CC1)S(=O)(=O)c1ccc(-c2cnc(N)c(-c3ccc4c(c3)CCN(CCC#N)C4=O)c2)cc1 [4-(6-amino-5-(2-(2-cyanoethyl)-1-oxo-1,2,3,4-tetrahydroisoquinolin-6-yl)pyridin-3-yl)-N-cyclopropyl-N-methylbenzenesulfonamide]"
< 0.05,< 0.01,"CC(C)(C#N)c1ccc(-c2cnc(N)c(-c3ccc4c(c3)CCNC4=O)n2)cc1 [2-(4-(5-amino-6-(1-oxo-1,2,3,4-tetrahydroisoquinolin-6-yl)pyrazin-2-yl)phenyl)-2-methylpropanenitrile]"
